Reference: paper PMC9787943, “Calcium-Dependent Interplay of Lithium and Tricyclic Antidepressants, Amitriptyline and Desipramine, on N-methyl-D-aspartate Receptors” (International Journal of Molecular Sciences, 2022)
Where two headings read alike, the source gives them in different places.

Test system: T1, native di- and triheteromeric NMDARs composed of GluN1, GluN2A, and GluN2B subunits
T1 construct: gene Grin1; native receptors in primary cultured cortical neurons (from fetal brains of 17-day pregnant rats, 10-14 days in culture); mixture of di- and triheteromers, heterotetramers with two GluN1 (known biology)
Assay: whole-cell patch clamp of cultured neurons, NMDA-elicited currents
Format: cell-based, Rattus norvegicus
Conditions: Na+ solution without Li+, 100 μM NMDA + 30 μM glycine, -70 mV, pH 7.2-7.4, 22-25 °C, no BAPTA, mode: Ca2+-dependent desensitization (paper suggests indirect, via NCX) plus open-channel bloc
Description: whole-cell patch clamp of cultured neurons, NMDA-elicited currents on native di- and triheteromeric NMDARs composed of GluN1, GluN2A, and GluN2B subunits

| Compound | IC50 (2 mM Ca2+, read-out: IC50 ATL) | IC50 (1 mM Ca2+, read-out: IC50 DES) |
| --- | --- | --- |
| CN(C)CCC=C1c2ccccc2CCc2ccccc21 [Amitriptyline] | 5 ± 1 µM |  |
| CNCCCN1c2ccccc2CCc2ccccc21 [Desipramine] |  | 1.75 ± 0.17 µM |
